Experimental data as given in patent US11154548B2, “Monosubstituted or polysubstituted amphiphilic hypocrellin derivative, and preparation method and application thereof” (Technical Institute of Physics and Chemistry of the Chinese …, priority 2015, dated 2021).
“Also recorded” adds a separate entry of the source.

Key:
Assay type in all cases: cell-based
Hela cells [1] = assay: Cell phototoxicity experiment, 635 nm laser, MTT assay; details: for Hela cells killed: 160 nM, exposed to red light (635 nm, 20 mW/cm^2, 1000 S), FIG. 10b
Procedure: (§1) Cultured Hela cells were digested and percussed with 0.25% trypsin, made into a single cell suspension, adjusted to a cell count of about 2×10^4/mL, inoculated into a 96-well culture plate with 200 uL/well, and cultured in an incubator with a 5% CO2 environment at 37° C. After cells were adherent, the supernatant culture solution was discarded, different concentrations of photosensitizers (hematoporphyrin derivative HpD, HB, and hypocrellin derivative HB-1) were added strictly in dark according to the experiment design, and further incubated in an incubator with a 5% CO2 environment at 37° C. for another 1 h. Then the 96-well culture plate was perpendicularly irradiated with uniform semiconductor laser beam at a wavelength of 635 nm with the power density adjusted to 20 mW/cm^2 for 1000 S. At the same time, a blank group was arranged for each 96-well culture plate, and 6 wells were arranged for each condition. After irradiation, the culture plate was further incubated in an incubator with a 5% CO2 environment at 37° C. for another 24 h, and then the cell survival rate was detected. The survival rate of cells was detected by MTT assay. 20 uL of MTT (prepared with PBS, concentration: 5 mg/mL) was added to each well, and further incubated in an incubator with a 5% CO2 environment at 37° C. for another 4 h. Then the incubation was terminated. The supernatant was carefully pipetted from the wells and discarded, and then 150 uL of dimethyl sulfoxide (DMSO) was added to each well. The violet crystal was fully dissolved by vibration with a microvibrator for 10 min. The optical density value (OD value) of each well was detected by an ELIASA at 570 nm wavelength to calculate the cell survival rate according to the following formula: cell survival rate=OD value of the experimental group/OD value of the blank group×100%.

Hela cells [2] = assay: Phototoxicity experiment, 671 nm laser, MTT assay; details: 200 nM, 50 mW/cm^2, 20 min, FIG. 16b
Procedure: Phototoxicity experiment: Hela cells were incubated together with different concentrations of the compound I-1, the HB and the Ce6 respectively, further incubated in an incubator with a 5% CO2 environment at 37° C. for another 1 hour. After laser irradiation with a power density of 50 mW/cm^2 at a wavelength of 671 nm for 20 min, the Hela cells were further cultured and incubated in an incubator with a 5% CO2 environment at 37° C. for another 24 h. The survival rate of cells in each group was detected by MTT assay.

Hela cells [3] = assay: Phototoxicity experiment, 808 nm laser, MTT assay; details: 300 nM, 20 mW/cm^2, 20 min, FIG. 18b
Hela cells [4] = assay: Dark toxicity experiment of polysubstituted derivatives, MTT assay; details: in dark; for cytotoxicity (dark toxicity): Hela cells, FIG. 16a / FIG. 18a
Procedure: Dark toxicity experiment: Hela cells at a certain concentration were inoculated into a 96-well plate, and cultured for 12-24 h. […] […] The survival rate of cells in each group was detected by MTT assay.
Dark toxicity experiment: Hela cells at a certain concentration were inoculated into a 96-well plate, and cultured for 12-24 h. […] […] The survival rate of cells in each group was detected by MTT assay. […] After laser irradiation with a power density of 20 mW/cm^2 at a wavelength of 808 nm for 20 min, the Hela cells were further cultured and incubated in an incubator with a 5% CO2 environment at 37° C. for another 24 h. The survival rate of cells in each group was detected by MTT assay.

Hela cells [5] = assay: Dark cytotoxicity experiment, MTT assay; details: in dark
Procedure: as §1, with “and further incubated in an incubator with a 5% CO2 environment at 37° C. for another 1 h. Then the 96-well culture plate was perpendicularly irradiated with uniform semiconductor laser beam at a wavelength of 635 nm with the power density adjusted to 20 mW/cm^2 for 1000 S. At the same time, a blank group was arranged for each 96-well culture plate, and 6 wells were arranged for each condition. After irradiation, the culture plate was further incubated in an incubator with a 5% CO2 environment at 37° C. for another 24 h, and then the cell survival rate was detected.” left out

Compound	Hela cells killed (Hela cells [1])	Hela cells killed (Hela cells [2])	cytotoxicity (dark toxicity) (Hela cells [4])	other results
hematoporphyrin derivative [HpD]	about 20%	–	–	–
C=Cc1c(C)c2cc3nc(c(CC(=O)O)c4[nH]c(cc5nc(cc1[nH]2)C(C)=C5CC)c(C)c4C(=O)O)[C@@H](CCC(=O)O)[C@@H]3C [Ce6, dihydroporphin Ce6, reference compound]	–	about 30%	–	Hela cells killed (Hela cells [3]): about 20%
COC1=CC(=O)c2c(O)c(OC)c3c4c2c1c1c(OC)c2c(c5c6c(c(c4c15)C=C(C)C3C(C)=O)NCCN6)=NC(C(=O)O)CS2 (stereo not drawn) [II-2]	–	–	very low cytotoxicity	–
hypocrellin B [HB]	about 20%	–	–	phototoxicity / photodynamic effect, in words (Hela cells [1]; Hela cells, compared with HB and HpD, FIG. 10-14): much poorer ability to photodynamically kill tumor cells
COc1c(O)c2c(=O)cc(OC)c3c4c(OC)cc(=O)c5c(O)c(NCCOCCO)c6c(c(c1C(/C(C)=N/CCOCCO)C(C)=C6)c23)c54 (stereo not drawn) [HB-1]	more than 90%	–	–	death of Hela cells after incubation with the photosensitizer (Hela cells [5]; 10 uM, half an hour): significant death of the Hela cells are not seen; cytotoxicity (dark toxicity) (Hela cells [5]; Hela cells, FIG. 10a / FIG. 11a): low cytotoxicity
CCCCNc1c(O)c2c3c(c(OC)c4c5c6c(c(O)c(OC)c7c6c(c1C=C(C)C7C(C)=O)c42)C(=O)C=C5OC)SCCN=3 (stereo not drawn) [I-1]	–	more than 90%	very low cytotoxicity; also recorded: low cytotoxicity	death of Hela cells after incubation with the photosensitizer (Hela cells [4]; 10 uM, half an hour): significant death of the Hela cells are not seen
